These compounds were tested against Trypsin (Homo sapiens, UniProt P07477+P07478+P35030) (assay: Inhibition of trypsin (unknown origin)).
Format: protein assay

`CC(C)C[C@@H](NC(=O)[C@H](O)Cc1ccc(O)c(Cl)c1)C(=O)N1[C@H](C(=O)NCCCCNC(=N)N)C[C@@H]2CC[C@@H](O)C[C@@H]21` and `CC(C)C[C@@H](NC(=O)[C@H](O)Cc1ccc(O)c(Br)c1)C(=O)N1[C@H](C(=O)NCCCCNC(=N)N)C[C@@H]2CC[C@@H](O)C[C@@H]21` are within 1.5-fold of each other in IC50: 4.3 µM for the first, 4.1 µM for the second.

`CC[C@H](C)[C@@H](NC(=O)[C@@H](O)Cc1ccc(O)c(Cl)c1)C(=O)N1[C@H](C(=O)NCCCCNC(=N)N)C[C@@H]2CC[C@@H](O)C[C@@H]21` gave an IC50 of 2.8 µM.

`N=C(N)NCCCCNC(=O)[C@@H]1C[C@@H]2CC[C@@H](O)C[C@@H]2N1C(=O)[C@H](Cc1ccccc1)NC(=O)[C@@H](O)Cc1ccc(O)cc1` was tested, and the IC50 was 0.5 µg/mL.
